# Data taken from patent EP2067861A1, “Animals of the rattus genus wherein msh6 expression is functionally decreased and methods for the generation of specific mutants therefrom” (Koninklijke Nederlandse Akademie van Wetenschappen, priority 2007, dated 2009).
# Values joined by “and” are separate entries in the source; they are usually repeats but may differ in a detail not shown here. Identical values can stand only once.
# What was measured:
# msh6^-/- male rats = assay: Survival of ENU treated msh6^-/- male rats; assay type: in vivo, rat; conditions: for # Surviving founders: 3 x 30 mg/kg bodyweight ENU
# Source text: • Figure 1. Characteristics of the msh6^-/- rat. (A) Genomic organization of the msh6 gene in rats. The arrow marks the position of the ENU-induced mutation that results in a premature stop codon. The sequence trace indicates the T to A […] in a heterozygous rat. (B) Western blot (WB) of testes and cultured rat embryonic fibroblast (CREF) lysates stained with antibodies against human MSH6 (160 kDa). Lysate of human embryonic kidney (HEK) cells was loaded as a positive control. MSH6 protein is completely absent in msh6^-/- testes and CREF. Coomassie brilliant blue staining (CBB) was used as a control for protein loading. • Figure 2. Microsatellite instability in the germ line. (A) A mononucleotide repeat of 20 repetitive subunits (G)20 was analyzed in a cross between a msh6^-/- father and a wild type mother and their msh6^+/- offspring. The red line indicates the size of the most prominent amplification product in both parents. In the DNA sample of the offspring one of the alleles has lost one repetitive subunit. (B) Fragment analysis of a dinucleotide repeat (CA)36 that is polymorphic between the founder animals. […] The orange peaks represent the size marker that was loaded to determine the size of the PCR product. • Figure 3. Survival of the msh6^-/- rats. The time the rats became moribund is recorded. Red line, msh6^-/- rats (n=17); black line, control group (n=100, Source Harlan). • Figure 4. Tumors observed in the msh6^-/- rat. (A) Section of a mediastinal lymphoblastic lymphoma of a msh6^-/- male rat stained with HE. (B) A higher magnification of the lymphoblastic lymphoma. (C) Section of a leiomyosarcoma of the endometrium stained with HE. (D) Section of an endometrial carcinoma stained with HE. (E) A higher magnification of the endometrial carcinoma. (F) A section of a squamous cell carcinoma in the stomach of a msh6^-/- female rat stained with HE. (G) Section of a fibroadenoma of a msh6^-/- male rat stained with HE. (H) Section of a liver with lymphoblastic lymphoma leukemia stained with HE. (I) Section of a testicle containing a Leydig cell tumor stained with HE. • Figure 5. Survival of msh6^-/- male rats after treatment of different concentrations of ENU compared to untreated msh6^-/- male rats. Time points of the last ENU injection and the beginning of the mutation discovery screen are indicated. • Figure 6. ENU-induced target-selected knockout protocol. (A) Msh6^-/- males were mutagenized and crossed with wild-type Wistar females. At two weeks of age tissue samples from the F1 progeny were taken and DNA was isolated. (B) For every DNA samples 768 pre-selected amplicons were PCR amplified and dideoxy sequenced. (C) Sequence traces for the same amplicon of the different animals was aligned, processed with PolyPhred (Nickerson et al, (1997) Nucleic Acids Res 25, 2745-51) and analyzed using in house developed software. (D) ENU-induced de novo mutations were verified by independent PCR amplification and sequencing and pups carrying interesting mutations were weaned. The whole procedure from taking tissue samples to weaning interesting mutants takes 1 week, indicated in the centre of the figure. • Figure 7. ENU-induced mutation spectrum in MSH6 deficient background compared to MMR proficient animals. […] (B) The change of introducing a premature stop codon with ENU-induced MSH6 proficient and deficient mutation spectra. For the calculations the sequences of the 768 representative exon-containing amplicons were used (* indicates significance, p < 0.05).
# All experiments were approved by the Animal Care Committee of the Royal Dutch Academy of Science according to the Dutch legal ethical guidelines. Experiments were designed to minimize the number of required animals and their suffering. Male MSH6 knockout rats (Msh6^1Hubr) of 12 weeks of age were given three weekly intraperitoneal injections of 25, 30 and 35 mg/kg bodyweight ENU. […]
# wild-type rats = conditions: cited from earlier work
structure (smiles),measurement,setting,value
"CCN(N=O)C(N)=O [ENU, N-ethyl-N-nitrosourea]",# Surviving founders,msh6^-/- male rats; 17 - 19 weeks after last injection,5/5
same,# Surviving founders,msh6^-/- male rats; 20 - 22 weeks after last injection,5/5
same,# Surviving founders,msh6^-/- male rats; 23 - 25 weeks after last injection,5/5
same,# Surviving founders,msh6^-/- male rats; 26 - 29 weeks after last injection,3/5
same,age after which no male was alive,msh6^-/- male rats; ENU treated msh6^-/- males,≤ 50 weeks
same,average mean of survival,msh6^-/- male rats; ENU treated msh6^-/- males (untreated msh6^-/- rats: median survival 14 months),37 ± 3 weeks
same,average mean of survival,"msh6^-/- male rats; ENU treated msh6^-/- males, same value restated in months",~8 months
same,# Surviving founders,"msh6^-/- male rats; fertile msh6^-/- males, 14 - 16 weeks after last injection",5/5
same,rats fertile,"wild-type rats; 35 mg/kg ENU, earlier studies (Smits and Cuppen 2006)",10/10
same,# Fertile males,"wild-type rats; Control 3 x 40 mg of ENU per kg bodyweight, 10 males injected",6/10 and 6
